Molecular target: T1, PDE10A (Rattus norvegicus, UniProt Q9QYJ6)
T1 construct: from tissue; host or cells: brain (striatum) of living male Wistar rats, in vivo microPET
T1 sequence (Q9QYJ6 1-794): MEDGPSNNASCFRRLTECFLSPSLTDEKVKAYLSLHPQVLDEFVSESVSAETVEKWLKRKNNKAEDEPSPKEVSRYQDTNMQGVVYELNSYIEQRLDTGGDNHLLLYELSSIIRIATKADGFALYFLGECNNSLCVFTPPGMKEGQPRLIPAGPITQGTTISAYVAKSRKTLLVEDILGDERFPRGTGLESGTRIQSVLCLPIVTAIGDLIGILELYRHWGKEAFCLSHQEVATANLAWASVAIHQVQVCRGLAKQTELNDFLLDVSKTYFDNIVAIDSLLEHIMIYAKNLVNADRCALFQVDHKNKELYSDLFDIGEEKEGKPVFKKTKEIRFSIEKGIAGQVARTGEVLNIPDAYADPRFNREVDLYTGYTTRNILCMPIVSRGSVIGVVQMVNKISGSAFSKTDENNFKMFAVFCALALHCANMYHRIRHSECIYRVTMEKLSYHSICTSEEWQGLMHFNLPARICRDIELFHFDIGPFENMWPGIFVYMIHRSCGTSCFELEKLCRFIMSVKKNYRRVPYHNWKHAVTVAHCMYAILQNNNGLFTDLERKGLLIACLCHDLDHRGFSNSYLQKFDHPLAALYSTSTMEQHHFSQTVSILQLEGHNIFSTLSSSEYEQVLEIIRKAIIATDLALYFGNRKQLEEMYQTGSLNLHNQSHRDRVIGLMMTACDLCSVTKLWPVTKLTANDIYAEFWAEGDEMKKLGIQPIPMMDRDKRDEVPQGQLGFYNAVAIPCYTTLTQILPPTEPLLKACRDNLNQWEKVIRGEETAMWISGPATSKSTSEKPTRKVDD
Experiment: microPET imaging study
Type: in vivo
Experimental: (§1) Imaging experiments were performed on a Focus™ 220 microPET scanner (Concorde Microsystems, Knoxville, Tenn., USA) using male Wistar rats with body weight between 200 and 300 g. Animals were injected with about 74 MBq of high specific activity formulation of [^18F]B-1 via tail vein under anesthesia (2.5% Isoflurane in O2 at 1 L/min flow rate). Dynamic scans of 90 min were acquired in List mode. Acquisition data were Fourier rebinned in different time frames (4×15 s, 4×1 min, 5×3 min, 14×5 min) and reconstructed with Filtered Back Projection (FBP). An average image (frame 1 to 27) of the reconstructed data was spatially normalized to an in-house created [^11C]raclopride template of the rat brain in Paxinos coordinates. The affine transformation was then used to normalize all time frames of the dynamic dataset to allow automated and symmetric volumes of interest (VOIs) analyses. Time-activity curves (TAC) were generated for striatum, cortex and cerebellum for each individual scan, using PMOD software (v 3.0, PMOD Technologies Ltd., Zurich, Switzerland). The radioactivity concentration in the different brain regions was expressed as standardized uptake value (SUV) as a function of time p.i. of the radiotracer by normalization for body weight of the animal and injected dose. Since PDE10A is expressed at low level in the cerebellum, binding potential (BP) values were calculated using the multilinear reference tissue model developed by Ichise et al. with the cerebellum considered as reference, using the same software (PMOD). Rats (n=5) were used for baseline imaging of which 3 animals were used in pretreatment studies in which the non-radioactive analogue B-1 was administered subcutaneously at a dose of 5 mg/kg at 30 min prior to the radiotracer injection.
Imaging experiments were performed on a Focus™ 220 microPET scanner (Concorde Microsystems, Knoxville, Tenn., USA) using male Wistar rats with body weight between 350 and 480 g. For the baseline microPET study, rats (n=2) were injected with about 74 MBq of high specific activity formulation of [^18F]B-2 via tail vein under anesthesia (2.5% Isoflurane in O2 at 1 L/min flow rate). For the pretreatment experiment, the radioactivity dose was reduced to about 37 MBq. Pretreatment was done by administering the non-radioactive analogue B-2 subcutaneously at a dose of 2.5 mg/kg at 60 min prior to the tracer injection (n=1).
as §1, with “Dynamic” for “Imaging experiments were performed on a Focus™ 220 microPET scanner (Concorde Microsystems, Knoxville, Tenn., USA) using male Wistar rats with body weight between 200 and 300 g. Animals were injected with about 74 MBq of high specific activity formulation of [^18F]B-1 via tail vein under anesthesia (2.5% Isoflurane in O2 at 1 L/min flow rate). Dynamic”, “120” for “90”, “8×5 min, 10×6” for “14×5”, “31)” for “27)”, “(PMOD).” for “(PMOD). Rats (n=5) were used for baseline imaging of which 3 animals were used in pretreatment studies in which the non-radioactive analogue B-1 was administered subcutaneously at a dose of 5 mg/kg at 30 min prior to the radiotracer injection.”

In the case of [18F]CCCn1cc(-c2ccncc2)c(-c2ccc(OCc3ccc4ccccc4n3)cc2)n1 [[^18F]B-1], the “binding potential (BP) value after non-radioactive analogue” value (B-1, 5 mg/kg s.c., 30 min prior to tracer) was 0.11±0.10, the “time at which peak tissue concentrations in the brain were reached” value (baseline) was “within one minute” and the Peak striatum-to-cerebellum ratio (baseline, at 15 min post injection) was 2.7. The striatum-to-cerebellum ratio (baseline, until about 35 min post injection) was “higher than 2.5”, the “binding potential (BP) value at baseline” value (baseline, cerebellum as reference) was 0.58±0.17 and the “reduction in BP values with pretreatment compared to baseline” value (non-radioactive B-1, 5 mg/kg s.c., 30 min prior) was “about 80%”. The “striatum-to-cerebellum ratio after pre-treatment” value (pre-treated with non-radioactive B-1, 5 mg/kg s.c., 30 min prior) was 1.5.

Source: patent US20110305637A1, “RADIOLABELLED PDE10 LIGANDS” (Janssen Pharmaceutica N.V., priority 2009, published 2011)
